From paper PMC7948503, “Optimization of a peptide ligand for the adhesion GPCR ADGRG2 provides a potent tool to explore receptor biology” (The Journal of Biological Chemistry, 2020) come the findings set out here.

Broadly, the EC50 is the concentration giving half of the maximal effect. High values mean a need for much substance, low ones an effect from little substance.

Holding throughout (assay type): cell-based
The target in experiment [1] is T1, ADGRG2-ΔGPS-β V834A (Mus musculus, UniProt Q8CJ12, V848A).
T1 construct: expressed in transfected cells; host or cells: HEK293
T1 sequence (Q8CJ12 614-1009 V848A): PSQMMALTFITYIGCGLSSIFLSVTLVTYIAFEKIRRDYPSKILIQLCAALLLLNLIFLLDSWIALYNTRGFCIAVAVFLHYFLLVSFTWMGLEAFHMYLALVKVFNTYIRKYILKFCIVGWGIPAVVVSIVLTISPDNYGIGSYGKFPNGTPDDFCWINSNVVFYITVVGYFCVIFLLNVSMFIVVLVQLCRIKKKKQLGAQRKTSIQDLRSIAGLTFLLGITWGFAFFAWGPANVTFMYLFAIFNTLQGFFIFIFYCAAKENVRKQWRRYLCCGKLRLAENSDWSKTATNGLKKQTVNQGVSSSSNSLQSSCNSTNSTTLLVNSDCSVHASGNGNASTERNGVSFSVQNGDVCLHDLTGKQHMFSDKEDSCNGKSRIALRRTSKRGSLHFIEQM
Description: GloSensor cAMP assay. The settings on record: mutant V834A; HEK293, cAMP Glosensor. The text has this:
(§1) Wildtype ADGRG2 full-length (ADGRG2-FL) was cloned from mouse total cDNA libraries using the following primers: forward, […]; reverse, […], and then ADGRG2-FL, ADGRG2 C-terminal truncation mutant (ADGRG2-β), and ADGRG2-ΔGPS-β (the entire ECD of ADGRG2 was deleted) were subcloned into the pcDNA3.1 expression vector. The ADGRG2-ΔGPS-β mutants (T610A, Y611A, C614A, S661A, W662A, I663A, L665A, Y666A，N667A, F671A, L679A, L683A, I730A, V731A, F741A, F747A, W757A, I758A, N759A, S760A, V762A, F764A, Y765A, V768A, V769A, F772A, V774A, W824A, F826A, F828A, F829A, V834A, V836A, F838A, M839A, I844A, F845A) were generated using a QuikChange Mutagenesis Kit (Stratagene). All mutations were verified by DNA sequencing.
(§2) The Glosensor cAMP assay was performed as described ([6], [39], [40]). HEK293 cells were transfected with the GloSensor plasmid and the desired expression plasmids in 24-well dishes. Twenty-four hours after transfection, the cells were plated on 96-well plates at a cell density of 20,000 cells/well. The cells were maintained in Dulbecco’s modified Eagle’s medium for another 24 h, washed with PBS, and then incubated with 100 μl of solution containing 10% fetal bovine serum, 2% (v/v) GloSensor cAMP reagent, and 88% CO2-independent medium in each well for 2 h. The cAMP signal was examined using a luminescence counter (Mithras LB 940).

The target in experiment [2] is T2, ADGRG2-ΔGPS-β V768A (Mus musculus, UniProt Q8CJ12, V782A).
T2 construct: expressed in transfected cells; host or cells: HEK293
T2 sequence (Q8CJ12 614-1009 V782A): as the sequence (Q8CJ12 614-1009 V848A) above, with V169A, A235V counted along it
Description: GloSensor cAMP assay. Particulars: mutant V768A; HEK293, cAMP Glosensor.
Description: as §1, §2
A general note: Changes in cAMP serve as a functional read-out for many G protein-coupled receptors.

In experiment [3] the target is T3, ADGRG2-ΔGPS-β V774A (Mus musculus, UniProt Q8CJ12, V788A).
T3 construct: expressed in transfected cells; host or cells: HEK293
T3 sequence (Q8CJ12 614-1009 V788A limits assumed): as the sequence (Q8CJ12 614-1009 V848A) above, with V175A, A235V counted along it
Kind of experiment: GloSensor cAMP assay. The settings on record: mutant V774A; HEK293, cAMP Glosensor.
Description: as §1, §2

For experiment [4], the target named is T4, ADGRG2-ΔGPS-β W824A (Mus musculus, UniProt Q8CJ12, W838A).
T4 construct: expressed in transfected cells; host or cells: HEK293
T4 sequence (Q8CJ12 614-1009 W838A): as the sequence (Q8CJ12 614-1009 V848A) above, with W225A, A235V counted along it
Description: GloSensor cAMP assay. Particulars: mutant W824A; HEK293, cAMP Glosensor.
Description: as §1, §2

Experiment [5] deals with T5, ADGRG2-ΔGPS-β L665A (Mus musculus, UniProt Q8CJ12, L679A).
T5 construct: expressed in transfected cells; host or cells: HEK293
T5 sequence (Q8CJ12 614-1009 L679A): as the sequence (Q8CJ12 614-1009 V848A) above, with L66A, A235V counted along it
Kind of experiment: GloSensor cAMP assay. The settings on record: mutant L665A; HEK293, cAMP Glosensor.
Description: as §1, §2

The target of experiment [6] is T6, ADGRG2-ΔGPS-β I758A (Mus musculus, UniProt Q8CJ12, I772A).
T6 construct: expressed in transfected cells; host or cells: HEK293
T6 sequence (Q8CJ12 614-1009 I772A): as the sequence (Q8CJ12 614-1009 V848A) above, with I159A, A235V counted along it
Kind of experiment: GloSensor cAMP assay. The settings on record: mutant I758A; HEK293, cAMP Glosensor.
Description: as §1, §2

Experiment [7] concerns the target T7, ADGRG2-ΔGPS-β I741A (Mus musculus, UniProt Q8CJ12, I755A).
T7 construct: expressed in transfected cells; host or cells: HEK293
Kind of experiment: GloSensor cAMP assay. Particulars: mutant I741A; HEK293, cAMP Glosensor.
Description: as §1, §2

Experiment [8] addresses T8, ADGRG2-ΔGPS-β L683A (Mus musculus, UniProt Q8CJ12, L697A).
T8 construct: expressed in transfected cells; host or cells: HEK293
Description: GloSensor cAMP assay. Particulars: mutant L683A; HEK293, cAMP Glosensor.
Description: as §1, §2

For experiment [9], the target named is T9, ADGRG2-ΔGPS-β F772A (Mus musculus, UniProt Q8CJ12, F786A).
T9 construct: expressed in transfected cells; host or cells: HEK293
T9 sequence (Q8CJ12 614-1009 F786A): as the sequence (Q8CJ12 614-1009 V848A) above, with F173A, A235V counted along it
Description: GloSensor cAMP assay. Particulars: mutant F772A; HEK293, cAMP Glosensor.
Description: as §1, §2

For experiment [10], the target named is T10, ADGRG2-ΔGPS-β N667A (Mus musculus, UniProt Q8CJ12, N681A).
T10 construct: expressed in transfected cells; host or cells: HEK293
T10 sequence (Q8CJ12 614-1009 N681A): as the sequence (Q8CJ12 614-1009 V848A) above, with N68A, A235V counted along it
Description: GloSensor cAMP assay. The settings on record: mutant N667A; HEK293, cAMP Glosensor.
Description: as §1, §2

The target in experiment [11] is T11, ADGRG2-ΔGPS-β V762A (Mus musculus, UniProt Q8CJ12, V776A).
T11 construct: expressed in transfected cells; host or cells: HEK293
T11 sequence (Q8CJ12 614-1009 V776A): as the sequence (Q8CJ12 614-1009 V848A) above, with V163A, A235V counted along it
Description: GloSensor cAMP assay. The settings on record: mutant V762A; HEK293, cAMP Glosensor.
Description: as §1, §2

Experiment [12] deals with T12, ADGRG2-ΔGPS-β V769A (Mus musculus, UniProt Q8CJ12, V783A).
T12 construct: expressed in transfected cells; host or cells: HEK293
T12 sequence (Q8CJ12 614-1009 V783A): as the sequence (Q8CJ12 614-1009 V848A) above, with V170A, A235V counted along it
Description: GloSensor cAMP assay. The settings on record: mutant V769A; HEK293, cAMP Glosensor.
Description: as §1, §2

For experiment [13], the target named is T13, ADGRG2-ΔGPS-β I663A (Mus musculus, UniProt Q8CJ12, I677A).
T13 construct: expressed in transfected cells; host or cells: HEK293
T13 sequence (Q8CJ12 614-1009 I677A): as the sequence (Q8CJ12 614-1009 V848A) above, with I64A, A235V counted along it
Kind of experiment: GloSensor cAMP assay. Particulars: mutant I663A; HEK293, cAMP Glosensor.
Description: as §1, §2

The target in experiment [14] is T14, ADGRG2-ΔGPS-β F826A (Mus musculus, UniProt Q8CJ12, F840A).
T14 construct: expressed in transfected cells; host or cells: HEK293
T14 sequence (Q8CJ12 614-1009 F840A): as the sequence (Q8CJ12 614-1009 V848A) above, with F227A, A235V counted along it
Description: GloSensor cAMP assay. The settings on record: mutant F826A; HEK293, cAMP Glosensor.
Description: as §1, §2

The target in experiment [15] is T15, ADGRG2-ΔGPS-β T610A (Mus musculus, UniProt Q8CJ12, T624A).
T15 construct: expressed in transfected cells; host or cells: HEK293
T15 sequence (Q8CJ12 614-1009 T624A): as the sequence (Q8CJ12 614-1009 V848A) above, with T11A, A235V counted along it
Kind of experiment: GloSensor cAMP assay. The settings on record: mutant T610A; HEK293, cAMP Glosensor.
Description: as §1, §2

For experiment [16], the target named is T16, ADGRG2-ΔGPS-β S661A (Mus musculus, UniProt Q8CJ12, S675A).
T16 construct: expressed in transfected cells; host or cells: HEK293
T16 sequence (Q8CJ12 614-1009 S675A): as the sequence (Q8CJ12 614-1009 V848A) above, with S62A, A235V counted along it
Kind of experiment: GloSensor cAMP assay. Particulars: mutant S661A; HEK293, cAMP Glosensor.
Description: as §1, §2

The target of experiment [17] is T17, ADGRG2-ΔGPS-β F838A (Mus musculus, UniProt Q8CJ12, F852A).
T17 construct: expressed in transfected cells; host or cells: HEK293
T17 sequence (Q8CJ12 614-1009 F852A): as the sequence (Q8CJ12 614-1009 V848A) above, with A235V, F239A counted along it
Description: GloSensor cAMP assay. Particulars: mutant F838A; HEK293, cAMP Glosensor.
Description: as §1, §2

In experiment [18] the target is T18, ADGRG2-ΔGPS-β (Mus musculus, UniProt Q8CJ12).
T18 construct: the entire ECD (including the entire GPS motif) was removed (ADGRG2-ΔGPS-β); expressed in transfected cells; host or cells: HEK293
T18 sequence (Q8CJ12 618-1009 limits assumed, stated change not applied): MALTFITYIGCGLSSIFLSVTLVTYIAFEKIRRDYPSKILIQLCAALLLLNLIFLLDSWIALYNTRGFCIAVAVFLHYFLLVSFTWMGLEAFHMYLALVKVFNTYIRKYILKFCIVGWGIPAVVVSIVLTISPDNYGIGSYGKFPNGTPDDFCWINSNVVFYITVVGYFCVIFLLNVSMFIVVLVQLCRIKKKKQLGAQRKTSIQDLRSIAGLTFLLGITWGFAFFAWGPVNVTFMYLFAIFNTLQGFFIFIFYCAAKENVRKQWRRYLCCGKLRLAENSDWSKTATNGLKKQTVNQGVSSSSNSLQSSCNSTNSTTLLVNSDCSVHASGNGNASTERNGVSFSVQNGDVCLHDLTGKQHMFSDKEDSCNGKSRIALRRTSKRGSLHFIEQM
Kind of experiment: GloSensor cAMP assay, HEK293 transfected with ADGRG2-ΔGPS-β.
Description: as §1
Human embryonic kidney 293 (HEK293) cells were maintained in Dulbecco’s modified Eagle’s medium supplemented with 10% fetal bovine serum, penicillin (100 IU/ml), and streptomycin (100 μg/ml) as described ([6], [38]). For receptor or other protein expression, plasmids carrying the desired genes were transfected into cells using Lipofectamine 2000 (Invitrogen).
as §2

Non-standard residues stand in square brackets, D forms with d. Residues, ends and D or L forms follow the SMILES beside them. Phe(4-Me) = Cc1ccc(C[C@H](N)C(=O)O)cc1

T8 sequence (Q8CJ12 614-1009 L697A): as the sequence (Q8CJ12 614-1009 V848A) above, with L84A, A235V counted along it
T7 sequence (Q8CJ12 614-1009 I755A): as the sequence (Q8CJ12 614-1009 V848A) above, with I142A, A235V counted along it

Consider `CC[C@H](C)[C@H](NC(=O)CNC(=O)[C@H](Cc1ccc(C)cc1)NC(=O)[C@H](CO)NC(=O)[C@@H](N)C(C)C)C(=O)N[C@@H](CC(C)C)C(=O)N[C@@H](CC(C)C)C(=O)N[C@@H](CC(=O)O)C(=O)N[C@@H](CC(C)C)C(=O)N[C@@H](CO)C(=O)N[C@@H](CCCNC(=N)N)C(=O)N[C@H](C(=O)N[C@@H](CO)C(=O)N[C@@H](CC(C)C)C(=O)N1CCC[C@H]1C(=O)O)[C@@H](C)O` [VPM-p15] (H-VS[Phe(4-Me)]GILLDLSRTSLP-OH), for which the EC50 in experiment [1] is 1140 nM; in experiment [2], 7.39 µM; in experiment [3], 1280 nM; in experiment [4], 9.75 µM; in experiment [5], 1590 nM; in experiment [6], 13.8 µM. The EC50 was found to be 1550 nM in [7]; 1310 nM in [8]; 2180 nM in experiment [9]; 1240 nM in experiment [10]; 2350 nM in [11]; 1690 nM in [12]. Also, the EC50 in [13] turned out to be 1200 nM; in experiment [14], 6.6 µM; in [15], 1030 nM; in experiment [16] it was 2320 nM; in experiment [17] it was 1700 nM; in experiment [18] (cAMP Glosensor, ADGRG2-ΔGPS-β, HEK293) it was 1410 ± 160 nM. Also, the half-maximal effective concentration (EC50) in experiment [18] (receptor WT (Table S4), HEK293, cAMP Glosensor) came out at 1060 nM. In addition, in experiment [18] (concentration-response curves, cAMP Glosensor, ADGRG2-ΔGPS-β), the “EC50 compared with wildtype p15 or other mutants” value is “significant lower EC50 than other mutants”.
